Measured values taken from patent US20130267484A1, “TREATMENT OF RHEUMATOID ARTHRITIS WITH MASITINIB” (AB SCIENCE, priority 2010, published 2013).
Values joined by “and” are separate entries in the source; they are usually repeats but may differ in a detail not shown here. Equal entries are not always repeated.

Tested on: DMARD-refractory active RA
Test: Phase 2a trial of masitinib in DMARD-refractory active RA: efficacy (ACR, ACRn, CRP, DAS28)
Type: in vivo, Human
Set-up: ACRn Mean ± SD / ACRn Median: unit not given here
Text: The main exclusion criteria were patients with: inadequate bone marrow function, defined as an absolute neutrophil count ≦2.5×10^9/litre, and platelets ≦100×10^9/litre; active current infection, history of infection requiring hospitalisation, history of recurrent infections, or treatment with antibiotics within 2 weeks of screening. Treatment wash-out periods observed prior to entry to the study were: a) DMARD use within 4 weeks; b) five half-lives, or wash-out in accordance for a specific drug, whichever is longer; c) any live (attenuated) vaccines taken within 4 weeks; d) use of more than one NSAID or its dosage change within 4 weeks; e) prednisone or equivalent corticosteroid dosage >10 mg/day or any dosage change within 4 weeks; and f) prednisone or equivalent corticosteroid dosage >20 mg administered via intra-articular injection, bolus intramuscular or intravenous treatment within 4 weeks. Other exclusion criteria included any previous use of recombinant interleukin-1 receptor antagonist (IL1-Ra) and patients who were pregnant or nursing.
Efficacy data are presented using descriptive statistics, contrasting initial dosage groups or according to previous DMARD failure. For comparison of groups according to initial dosage on a continuous variable, Student test (with Satterwhaite correction for unequal variance) or Wilcoxon test were used when normality was not rejected or rejected, respectively (normality determined via the Shapiro-Wilk test). For the same comparison on a qualitative variable, Chi-square or Fisher Exact test (if the Chi-square hypotheses were not filled) were used. The rate of patients achieving the various ACR response variables after 12 weeks of treatment (remission rate) are presented in terms of percentage and number of patients. Patients were assigned to either 3 or 6 mg/kg/day treatment groups based upon a randomisation schedule generated for packaging and labelling by the Biostatistics Section of AB Science. Individual treatment doses to be administered were supplied in sealed envelopes to be opened by the investigator at time of inclusion. Patients received the treatment from the investigator on an open basis.
Due to the relatively high patient drop-out rate of this study, analysis was conducted on two different datasets: one with an imputation of missing values according to the last observation carried forward (LOCF) methodology and the other in the absence of data imputation, i.e. the observed cases (OC). Analysis for efficacy was performed on a modified Intention-To-Treat (ITT) population and Per Protocol (PP) population. […] The PP population was defined as a subgroup of the ITT population that in addition had presented no major protocol deviations and had completed at least 28 days of treatment exposure.

[1] = W 60, extension phase, ITT population, n = 8
[2] = W 72, extension phase, ITT population, n = 7
[3] = W 72, extension phase, ITT population, n = 9
[4] = W 84, extension phase, ITT population, n = 4
[5] = W 84, extension phase, ITT population, n = 8
[6] = initial dosage 3 mg/kg/day (n = 22), ITT population
[7] = initial dosage 3 mg/kg/day (n = 22), ITT population, listed as Masitinib
[8] = initial dosage 6 mg/kg/day (n = 18), ITT population
[9] = week 12, ITT LOCF, All patients (n = 34)
[10] = week 12, ITT LOCF, All patients (n = 39)
[11] = week 12, ITT LOCF, Resistance to MTX (n = 28)
[12] = week 12, ITT LOCF, Resistance to MTX (n = 32)
[13] = week 12, ITT LOCF, Resistance to anti-TNFα (n = 18)
[14] = week 12, ITT LOCF, Resistance to anti-TNFα (n = 19)
[15] = week 12, PP OC, All patients (n = 24)
[16] = week 12, PP OC, All patients (n = 27)
[17] = week 12, PP OC, Resistance to MTX (n = 20)
[18] = week 12, PP OC, Resistance to MTX (n = 23)
[19] = week 12, PP OC, Resistance to anti-TNFα (n = 13)
[20] = week 12, PP OC, Resistance to anti-TNFα (n = 14)

Cc1ccc(NC(=O)c2ccc(CN3CCN(C)CC3)cc2)cc1Nc1nc(-c2cccnc2)cs1 [masitinib, 4-(4-methylpiperazin-1-ylmethyl)-N-[4-methyl-3-(4-pyridin-3ylthiazol-2-ylamino)phenyl]benzamide]
ACRn Median [1]: 64.9 | ACRn Min-Max [1]: 10.0-93.3 | DAS28 <2.6, patients [2]: 1 (14%) | DAS28 Mean ± SD [2]: 3.5 ± 1.5 | DAS28 Median [2]: 3.0 | DAS28 Min-Max [2]: 1.6-6.1 | DAS28 ≦3.2, patients [2]: 4 (57%) | ACR20, patients reaching level [3]: 6 (67%) | ACR50, patients reaching level [3]: 3 (33%) | ACR70, patients reaching level [3]: 2 (22%) | ACR90, patients reaching level [3]: 1 (11%) | ACRn Mean ± SD [3]: 35.6 ± 41.3 | ACRn Median [3]: 39.7 | ACRn Min-Max [3]: −27.8-97.4 | CRP 0% < Improvement ≦25%, patients [3]: 1 (11%) | CRP 25% < Improvement ≦50%, patients [3]: 1 (11%) | CRP Deterioration, patients [3]: 1 (11%) | CRP Improvement >50%, patients [3]: 6 (68%) | CRP Stable, patients [3]: 0 (0%) | DAS28 <2.6, patients [4]: 2 (50%) | DAS28 Mean ± SD [4]: 3.1 ± 1.6 | DAS28 Median [4]: 2.5 | DAS28 Min-Max [4]: 1.9-5.5 | DAS28 ≦3.2, patients [4]: 3 (75%) | ACR20, patients reaching level [5]: 7 (88%) | ACR50, patients reaching level [5]: 5 (63%) | ACR70, patients reaching level [5]: 2 (25%) | ACR90, patients reaching level [5]: 1 (13%) | ACRn Mean ± SD [5]: 50.9 ± 38.0 | ACRn Median [5]: 55.0 | ACRn Min-Max [5]: −17.6-98.8 | CRP 0% < Improvement ≦25%, patients [5]: 1 (13%) | CRP 25% < Improvement ≦50%, patients [5]: 1 (13%) | CRP Deterioration, patients [5]: 1 (13%) | CRP Improvement >50%, patients [5]: 5 (63%) | CRP Stable, patients [5]: 0 (0%) | Share of patients achieving ACR20 who did so at the stated dosage at time of first response (dosage not given): approximately 65% | Share of patients achieving ACR50 who did so at the stated dosage at time of first response (dosage not given): ~73% | Patients achieving up to 90% improvement (ACR90) (extension phase, after 1 year of treatment (60 weeks)): two | Duration over which observed improvement is maintained (extension phase, preliminary): > 84 weeks | Time to first response ACR20, Mean ± SD [6]: 51.9 ± 24.5 days | Time to first response ACR20, Median [6]: 56 days | Time to first response ACR20, Min-Max [6]: 28.0 to 105.0 days | Time to first response ACR50, Mean ± SD [6]: 91.9 ± 59.5 days | Time to first response ACR50, Median [6]: 84 days | Time to first response ACR50, Min-Max [6]: 28.0 to 217.0 days | Time to first response ACR20, Median [7]: 56.0 days | Time to first response ACR50, Median [7]: 84.0 days | Time to first response ACR20, Mean ± SD [8]: 40.3 ± 19.0 days | Time to first response ACR20, Median [8]: 29 days | Time to first response ACR20, Min-Max [8]: 28.0 to 86.0 days | Time to first response ACR50, Mean ± SD [8]: 86.8 ± 61.1 days | Time to first response ACR50, Median [8]: 72.5 days | Time to first response ACR50, Min-Max [8]: 28.0 to 203.0 days | Time to first response ACR20, Median (initial dosage 6 mg/kg/day (n = 18), ITT population, listed as Masitinib): 29.0 days | Patients achieving ACR20 and ΔCRP>50% response criteria (regardless of previous treatment (anti-TNFα or MTX failure)): approximately 50% | Patients with significant reduction (>50%) in CRP levels (week 12): approximately 50% | DAS28 Mean ± SD [9]: 4.8 ± 1.5 | DAS28 Min-Max [9]: 0.5-7.0 | ΔDAS28 (change in DAS28 score from baseline) [9]: 1.7 | ACRn Mean ± SD [10]: 23.0 and 23.0 ± 37.5 | ACRn Median [10]: 25.7 | ACRn Min-Max [10]: −62.5-87.5 | DAS28 Mean ± SD [11]: 4.8 ± 1.5 | DAS28 Min-Max [11]: 0.5-7.0 | ΔDAS28 (change in DAS28 score from baseline) [11]: 1.8 | ACRn Mean ± SD [12]: 24.1 ± 38.8 | ACRn Median [12]: 32.7 | ACRn Min-Max [12]: −62.5-87.5 | DAS28 Mean ± SD [13]: 5.2 ± 1.1 | DAS28 Min-Max [13]: 3.3-7.0 | ΔDAS28 (change in DAS28 score from baseline) [13]: 1.7 | ACRn Mean ± SD [14]: 18.7 ± 36.8 | ACRn Median [14]: 20.6 | ACRn Min-Max [14]: −62.5-72.2 | DAS28 Mean ± SD [15]: 4.6 ± 1.3 | DAS28 Min-Max [15]: 0.5-7.0 | ΔDAS28 (change in DAS28 score from baseline) [15]: 2.0 | ACRn Mean ± SD [16]: 31.6 | ACRn Median [16]: 42.9 | ACRn Min-Max [16]: −40.0-87.5 | DAS28 Mean ± SD [17]: 4.6 ± 1.4 | DAS28 Min-Max [17]: 0.5-7.0 | ΔDAS28 (change in DAS28 score from baseline) [17]: 2.1 | ACRn Mean ± SD [18]: 36.6 ± 31.6 | ACRn Median [18]: 46.9 | ACRn Min-Max [18]: −40.0-87.5 | DAS28 Mean ± SD [19]: 5.1 ± 1.2 | DAS28 Min-Max [19]: 3.3-7.0 | ΔDAS28 (change in DAS28 score from baseline) [19]: 1.8 | ACRn Mean ± SD [20]: 28.1 ± 32.1 | ACRn Median [20]: 44.3 | ACRn Min-Max [20]: 40.0-72.2
